Values quoted from earlier work in patent publication US10912471B2, “System and method for automatic perfusion measurement” (priority 2018, dated 2021).

Experiments:
plasma proteins = conditions: becomes confined to the vascular system
[1] = administration not without risks, e.g. during pregnancy

binding to plasma proteins (plasma proteins): binds tightly to plasma proteins
Compound: CC1(C)C(/C=C/C=C/C=C/C=C2\N(CCCCS(=O)(=O)O)c3ccc4ccccc4c3C2(C)C)=[N+](CCCCS(=O)(=O)[O-])c2ccc3ccccc3c21 [ICG, Indocyanine green]
toxicity classification [1]: low
